Experimental findings from ChEMBL document CHEMBL1158018 (J Nat Prod, 1999) are described below.

Assay [1] addresses Prostaglandin G/H synthase 1 (Homo sapiens, UniProt P23219). As to the kind of experiment: Inhibition of PGHS1 assessed as conversion of arachidonic acid to prostaglandin.
Assay [2] can be described thus: Antioxidant activity in liposomal model assessed as inhibition of ferrous ion-induced lipid peroxidation at 2 mM. The format is functional. Also noted: scale not given: the % may be the effect or the level left.

Prostaglandin G/H synthase 1, sequence (P23219 whole entry): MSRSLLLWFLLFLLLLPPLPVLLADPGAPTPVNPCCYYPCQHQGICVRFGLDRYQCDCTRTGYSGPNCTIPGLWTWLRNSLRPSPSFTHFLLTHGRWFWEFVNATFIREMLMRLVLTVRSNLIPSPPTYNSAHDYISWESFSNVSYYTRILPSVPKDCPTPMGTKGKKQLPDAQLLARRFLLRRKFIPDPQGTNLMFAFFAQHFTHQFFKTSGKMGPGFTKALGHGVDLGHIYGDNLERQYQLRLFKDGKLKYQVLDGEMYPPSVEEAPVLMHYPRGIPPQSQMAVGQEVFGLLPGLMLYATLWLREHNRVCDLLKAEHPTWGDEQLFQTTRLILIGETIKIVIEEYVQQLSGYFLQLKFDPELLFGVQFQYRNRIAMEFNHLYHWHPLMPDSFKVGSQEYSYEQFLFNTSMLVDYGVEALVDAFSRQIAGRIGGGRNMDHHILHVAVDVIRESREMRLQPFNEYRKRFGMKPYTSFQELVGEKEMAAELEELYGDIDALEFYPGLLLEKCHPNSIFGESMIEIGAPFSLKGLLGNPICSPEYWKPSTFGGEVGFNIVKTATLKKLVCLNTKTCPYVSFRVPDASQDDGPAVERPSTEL

In the case of `Oc1cc(O)c2cc(O)c(-c3ccc(O)c(O)c3)[o+]c2c1` [CYANIDIN], the IC50 in assay [1] amounted to 90 µM. The Activity in assay [2] is 57%.
